{"source": "PubChem BioAssay (NCI)", "experiment_in_all_cases": "NCI anticancer screen, dose series, 48 h", "key": {"MALME-3M melanoma": {"test_system": "MALME-3M melanoma"}, "HCT-116 colon": {"test_system": "HCT-116 colon"}, "IGROV1 ovarian": {"test_system": "IGROV1 ovarian"}, "SF-268 CNS": {"test_system": "SF-268 CNS"}, "SN12C renal": {"test_system": "SN12C renal"}, "OVCAR-5 ovarian": {"test_system": "OVCAR-5 ovarian"}, "OVCAR-3 ovarian": {"test_system": "OVCAR-3 ovarian"}, "MCF7 breast": {"test_system": "MCF7 breast"}, "PC-3 prostate": {"test_system": "PC-3 prostate"}, "T-47D breast": {"test_system": "T-47D breast"}, "RPMI-8226 leukemia": {"test_system": "RPMI-8226 leukemia"}, "OVCAR-4 ovarian": {"test_system": "OVCAR-4 ovarian"}, "786-0 renal": {"test_system": "786-0 renal"}, "M14 melanoma": {"test_system": "M14 melanoma"}, "SNB-75 CNS": {"test_system": "SNB-75 CNS"}, "SW-620 colon": {"test_system": "SW-620 colon"}, "NCI/ADR-RES ovarian": {"test_system": "NCI/ADR-RES ovarian"}, "SR leukemia": {"test_system": "SR leukemia"}, "SF-295 CNS": {"test_system": "SF-295 CNS"}, "KM12 colon": {"test_system": "KM12 colon"}, "SK-MEL-28 melanoma": {"test_system": "SK-MEL-28 melanoma"}, "TK-10 renal": {"test_system": "TK-10 renal"}, "HOP-62 NSCLC": {"test_system": "HOP-62 NSCLC"}, "UACC-62 melanoma": {"test_system": "UACC-62 melanoma"}, "EKVX NSCLC": {"test_system": "EKVX NSCLC"}, "NCI-H226 lung": {"test_system": "NCI-H226 lung"}, "A498 renal": {"test_system": "A498 renal"}, "U251 CNS": {"test_system": "U251 CNS"}}, "note": "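Where inhibition never reached the appropriate level, the endpoint shown equals the highest concentration tested. Otherwise, values were interpolated linearly from a five-concentration, 48-hour dose response in 96-well plates. GI50 = concentration required for 50% inhibition of growth. TGI is the concentration that stops growth completely.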"}
{"smiles": "COC(CCP(=O)(c1ccccc1)c1ccccc1)(C(=O)c1ccccc1)c1ccccc1", "note": "(stereo unspecified)", "values": [{"measurement": "GI50", "setting": "MALME-3M melanoma", "value": 2.78, "unit": "µM"}, {"measurement": "TGI", "setting": "MALME-3M melanoma", "value": 15.4, "unit": "µM"}, {"measurement": "GI50", "setting": "HCT-116 colon", "value": 4.48, "unit": "µM"}, {"measurement": "TGI", "setting": "HCT-116 colon", "value": 16.5, "unit": "µM"}, {"measurement": "GI50", "setting": "IGROV1 ovarian", "value": 8.06, "unit": "µM"}, {"measurement": "TGI", "setting": "IGROV1 ovarian", "value": 25.4, "unit": "µM"}, {"measurement": "GI50", "setting": "SF-268 CNS", "value": 10.2, "unit": "µM"}, {"measurement": "TGI", "setting": "SF-268 CNS", "value": 21.9, "unit": "µM"}, {"measurement": "GI50", "setting": "SN12C renal", "value": 5.23, "unit": "µM"}, {"measurement": "TGI", "setting": "SN12C renal", "value": 20, "unit": "µM"}, {"measurement": "GI50", "setting": "OVCAR-5 ovarian", "value": 10.1, "unit": "µM"}, {"measurement": "TGI", "setting": "OVCAR-5 ovarian", "value": 23.7, "unit": "µM"}, {"measurement": "GI50", "setting": "OVCAR-3 ovarian", "value": 5.26, "unit": "µM"}, {"measurement": "TGI", "setting": "OVCAR-3 ovarian", "value": 18.2, "unit": "µM"}, {"measurement": "GI50", "setting": "MCF7 breast", "value": 2.39, "unit": "µM"}, {"measurement": "TGI", "setting": "MCF7 breast", "value": 11.3, "unit": "µM"}, {"measurement": "GI50", "setting": "PC-3 prostate", "value": 2.15, "unit": "µM"}, {"measurement": "TGI", "setting": "PC-3 prostate", "value": 12.3, "unit": "µM"}, {"measurement": "GI50", "setting": "T-47D breast", "value": 2.06, "unit": "µM"}, {"measurement": "TGI", "setting": "T-47D breast", "value": 12.3, "unit": "µM"}, {"measurement": "GI50", "setting": "RPMI-8226 leukemia", "value": 0.433, "unit": "µM"}, {"measurement": "TGI", "setting": "RPMI-8226 leukemia", "value": 2.6, "unit": "µM"}, {"measurement": "GI50", "setting": "OVCAR-4 ovarian", "value": 5.57, "unit": "µM"}, {"measurement": "TGI", "setting": "OVCAR-4 ovarian", "value": 21.4, "unit": "µM"}, {"measurement": "GI50", "setting": "786-0 renal", "value": 10.3, "unit": "µM"}, {"measurement": "TGI", "setting": "786-0 renal", "value": 28, "unit": "µM"}, {"measurement": "GI50", "setting": "M14 melanoma", "value": 3.5, "unit": "µM"}, {"measurement": "TGI", "setting": "M14 melanoma", "value": 15.3, "unit": "µM"}, {"measurement": "GI50", "setting": "SNB-75 CNS", "value": 5.76, "unit": "µM"}, {"measurement": "TGI", "setting": "SNB-75 CNS", "value": 22, "unit": "µM"}, {"measurement": "GI50", "setting": "SW-620 colon", "value": 3.86, "unit": "µM"}, {"measurement": "TGI", "setting": "SW-620 colon", "value": 15.7, "unit": "µM"}, {"measurement": "GI50", "setting": "NCI/ADR-RES ovarian", "value": 4.93, "unit": "µM"}, {"measurement": "TGI", "setting": "NCI/ADR-RES ovarian", "value": 20.9, "unit": "µM"}, {"measurement": "GI50", "setting": "SR leukemia", "value": 0.967, "unit": "µM"}, {"measurement": "TGI", "setting": "SR leukemia", "value": "> 100", "unit": "µM"}, {"measurement": "GI50", "setting": "SF-295 CNS", "value": 0.135, "unit": "µM"}, {"measurement": "TGI", "setting": "SF-295 CNS", "value": 1.49, "unit": "µM"}, {"measurement": "GI50", "setting": "KM12 colon", "value": 3.06, "unit": "µM"}, {"measurement": "TGI", "setting": "KM12 colon", "value": 13.4, "unit": "µM"}, {"measurement": "GI50", "setting": "SK-MEL-28 melanoma", "value": 6.95, "unit": "µM"}, {"measurement": "TGI", "setting": "SK-MEL-28 melanoma", "value": 19.9, "unit": "µM"}, {"measurement": "GI50", "setting": "TK-10 renal", "value": 2.94, "unit": "µM"}, {"measurement": "TGI", "setting": "TK-10 renal", "value": 14.1, "unit": "µM"}, {"measurement": "GI50", "setting": "HOP-62 NSCLC", "value": 11, "unit": "µM"}, {"measurement": "TGI", "setting": "HOP-62 NSCLC", "value": 24.8, "unit": "µM"}, {"measurement": "GI50", "setting": "UACC-62 melanoma", "value": 2.39, "unit": "µM"}, {"measurement": "TGI", "setting": "UACC-62 melanoma", "value": 15.1, "unit": "µM"}, {"measurement": "GI50", "setting": "EKVX NSCLC", "value": 4.37, "unit": "µM"}, {"measurement": "TGI", "setting": "EKVX NSCLC", "value": 16.9, "unit": "µM"}, {"measurement": "GI50", "setting": "NCI-H226 lung", "value": 2.19, "unit": "µM"}, {"measurement": "TGI", "setting": "NCI-H226 lung", "value": 15.7, "unit": "µM"}, {"measurement": "GI50", "setting": "A498 renal", "value": 3.4, "unit": "µM"}, {"measurement": "TGI", "setting": "A498 renal", "value": 16.8, "unit": "µM"}, {"measurement": "GI50", "setting": "U251 CNS", "value": 5.5, "unit": "µM"}, {"measurement": "TGI", "setting": "U251 CNS", "value": 18.4, "unit": "µM"}]}
